Assay results taken from ChEMBL document CHEMBL1130772, “New nonsteroidal androgen receptor modulators based on 4-(trifluoromethyl)-2(1H)-pyrrolidino[3,2-g] quinolinone” (Bioorg Med Chem Lett, 1998).

Legend:
[1] = target: T1, Mineralocorticoid receptor (Homo sapiens, UniProt P08235); assay: Antagonistic activity against hMR in co-transfected CV-1 cell; format: functional, cell-based
T1 sequence (P08235 whole entry): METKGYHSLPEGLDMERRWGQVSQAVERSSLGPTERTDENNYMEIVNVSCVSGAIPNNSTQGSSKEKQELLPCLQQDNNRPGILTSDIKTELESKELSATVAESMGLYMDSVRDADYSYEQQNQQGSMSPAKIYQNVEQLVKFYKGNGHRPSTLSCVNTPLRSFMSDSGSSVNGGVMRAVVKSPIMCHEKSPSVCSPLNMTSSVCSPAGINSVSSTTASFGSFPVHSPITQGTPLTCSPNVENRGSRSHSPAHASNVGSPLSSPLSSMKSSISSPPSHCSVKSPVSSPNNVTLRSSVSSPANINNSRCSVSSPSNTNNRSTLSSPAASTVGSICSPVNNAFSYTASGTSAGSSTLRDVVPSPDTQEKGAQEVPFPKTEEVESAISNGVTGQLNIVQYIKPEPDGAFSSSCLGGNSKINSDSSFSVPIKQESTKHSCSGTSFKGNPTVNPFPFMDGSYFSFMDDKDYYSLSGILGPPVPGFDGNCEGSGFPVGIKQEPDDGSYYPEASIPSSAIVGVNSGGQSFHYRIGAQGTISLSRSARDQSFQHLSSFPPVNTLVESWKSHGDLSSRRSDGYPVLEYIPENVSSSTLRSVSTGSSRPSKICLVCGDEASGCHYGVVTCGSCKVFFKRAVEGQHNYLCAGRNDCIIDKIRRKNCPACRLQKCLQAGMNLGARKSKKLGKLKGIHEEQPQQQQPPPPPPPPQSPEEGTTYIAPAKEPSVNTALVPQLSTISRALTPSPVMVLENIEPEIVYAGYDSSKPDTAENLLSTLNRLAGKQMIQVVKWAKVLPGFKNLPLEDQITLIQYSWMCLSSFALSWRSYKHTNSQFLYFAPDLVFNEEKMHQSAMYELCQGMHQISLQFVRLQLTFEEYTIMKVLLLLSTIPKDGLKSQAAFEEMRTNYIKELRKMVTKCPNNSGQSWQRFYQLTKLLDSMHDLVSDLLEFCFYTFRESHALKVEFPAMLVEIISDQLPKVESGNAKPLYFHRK

[2] = target: T2, Glucocorticoid receptor (Homo sapiens, UniProt P04150); assay: Antagonistic activity against Glucocorticoid receptor in co-transfected CV-1 cell; format: functional, cell-based
T2 sequence (P04150 whole entry): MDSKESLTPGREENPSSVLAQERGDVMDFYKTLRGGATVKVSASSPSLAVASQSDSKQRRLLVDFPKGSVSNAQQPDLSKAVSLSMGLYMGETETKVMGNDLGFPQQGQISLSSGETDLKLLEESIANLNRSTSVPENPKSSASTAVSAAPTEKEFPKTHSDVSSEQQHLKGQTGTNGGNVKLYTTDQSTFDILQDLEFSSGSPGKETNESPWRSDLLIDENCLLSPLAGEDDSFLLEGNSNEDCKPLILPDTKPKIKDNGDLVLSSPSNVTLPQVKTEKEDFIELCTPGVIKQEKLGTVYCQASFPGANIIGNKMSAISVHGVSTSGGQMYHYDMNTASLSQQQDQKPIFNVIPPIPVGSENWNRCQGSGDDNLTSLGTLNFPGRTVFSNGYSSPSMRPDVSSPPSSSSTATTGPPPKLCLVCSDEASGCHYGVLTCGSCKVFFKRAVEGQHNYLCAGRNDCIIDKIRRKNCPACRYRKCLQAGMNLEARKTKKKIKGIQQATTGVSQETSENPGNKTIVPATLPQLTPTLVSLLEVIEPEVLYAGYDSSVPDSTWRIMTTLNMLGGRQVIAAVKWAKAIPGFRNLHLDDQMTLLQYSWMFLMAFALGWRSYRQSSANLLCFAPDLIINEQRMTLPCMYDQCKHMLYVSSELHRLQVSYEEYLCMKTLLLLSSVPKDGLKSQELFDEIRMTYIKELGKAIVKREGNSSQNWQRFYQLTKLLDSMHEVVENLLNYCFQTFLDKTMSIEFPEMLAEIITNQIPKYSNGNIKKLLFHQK

Compound	IC50 [1]	IC50 [2]
CN1c2cc3c(cc2[C@H]2CCCC[C@H]21)c(C(F)(F)F)cc(=O)n3C	> 10 µM	> 10 µM
C[C@H]1CC[C@H]2Nc3cc4c(cc3[C@H]2C1)c(C(F)(F)F)cc(=O)n4C	> 10 µM	> 10 µM
CC1(C)CCC[C@]2(C)c3cc4c(C(F)(F)F)cc(O)nc4cc3N[C@H]12	0.57 µM	1.4 µM
